Measured values from US10501453B2, “Benzothiazole or benzoxazole compounds as SUMO activators” (Icahn School of Medicine at Mount Sinai, priority 2012, dated 2019).

Key:
[1] = test system: adult rat ventricular myocytes (ARVMs); experiment: Cell shortening/re-lengthening and calcium transient of ARVMs (IonOptix); type: cell-based
Experimental: Calcium-tolerant adult rat ventricular myocytes (ARVMs) were obtained from hearts of male Sprague-Dawley rats (250 to 300 g). The heart was excised and perfused with a standard enzymatic technique. ARVMs were plated on multi-chambered plates or culture dishes, pre-coated with laminin 2 μg/cm^2, at a density of 10^5 cells/cm^2 in DMEM without L-glutamine supplemented with 10 mmol/l HEPES, 3.7 mg/ml NaHCO3, 1 mg/ml glucose, 0.11 mg/ml sodium pyruvate, 2 mg/ml bovine serum albumin, 2 mmol/1 L-camitine, 5 mmol/1 creatine, 5 mmol/1 taurine, 1% penicillin-streptomycin, and 1% gentamycin. Following isolation, cells were allowed to settle for 1 hour. Cultures were incubated at 37° C., in an atmosphere of 5% CO2-95% air. Fresh medium was added gently as medium was being drawn off until the cultures had been thoroughly washed. Only quiescent, rod-shape cardiac myocytes were selected for IonOptix experiments.
Each compound was added at 10 μM. DMSO was used as a control. After 24 hours at 37° C., SERCA2a SUMOylation and functional analysis were determined.
Mechanical properties of ARVMs were assessed using an IonOptix MyoCam® system (IonOptix, Milton, Mass.). In brief, cells were placed in a Warner chamber mounted on the stage of an inverted microscope (Olympus, IX-70) and superfused (1 ml/min at 30° C.) with a buffer containing 131 mM NaCl, 4 mM KCl, 1 mM CaCh, 1 mM MgCh, 10 mM glucose, and 10 mM HEPES, pH 7.4. ARVMs were field stimulated with suprathreshold voltage and at a frequency of 0.5 Hz. […] SoftEdge software (IonOptix) was used to capture changes in cell length during shortening and re-lengthening.
ARVMs were placed in a chamber on an Olympus IX-70 inverted microscope and imaged through a Fluor 40× oil objective. ARVMs were exposed to light emitted by a 75 W lamp and passed through either a 360 or a 380 nm filter (bandwidths were ±15 nm), while being stimulated to contract at 0.5 Hz. Fluorescence emissions were detected between 480 and 520 nm by a photomultiplier tube after first illuminating cells at 360 nm for 0.5 s then at 380 nm for the duration of the recording protocol (333 Hz sampling rate). The 360 nm excitation scan was repeated at the end of the protocol and qualitative changes in intracellular Ca^2+ concentration ((Ca^2+]i) were inferred from the ratio of the fluorescence intensity at two wavelengths.
The effects of the Example compound was examined on isolated rat cardiomyocytes shortening and relaxation parameters. […] Effects of Example 1 on mechanical properties of the ARVMs were assessed using a video-based edge detection system (IonOptix). The time constant of the increase of force during the stretch decreased (tau), percentage of peak shortening (PS), maximal rate of relaxation and contraction were analyzed at 24 hrs postincubation of the compounds in culture media (N=10 ARVMs). The mechanical data were analyzed with student's t-test (FIG. 2A, P<0.05 compared to the DMSO treated cells). SERCA2a SUMOylation profiling was analyzed in a same set of ARVMs (FIG. 2B, WCL, whole cell lysates; S-SERCA2a, SUMOylated SERCA2a).

SUMO E1 enzyme = biological target: T1, SUMO E1 enzyme (Homo sapiens, UniProt Q9UBT2); experiment: ATP-dependent activation of SUMO-1 (ATP hydrolysis); type: biochemical
T1 sequence (Q9UBT2 1-640): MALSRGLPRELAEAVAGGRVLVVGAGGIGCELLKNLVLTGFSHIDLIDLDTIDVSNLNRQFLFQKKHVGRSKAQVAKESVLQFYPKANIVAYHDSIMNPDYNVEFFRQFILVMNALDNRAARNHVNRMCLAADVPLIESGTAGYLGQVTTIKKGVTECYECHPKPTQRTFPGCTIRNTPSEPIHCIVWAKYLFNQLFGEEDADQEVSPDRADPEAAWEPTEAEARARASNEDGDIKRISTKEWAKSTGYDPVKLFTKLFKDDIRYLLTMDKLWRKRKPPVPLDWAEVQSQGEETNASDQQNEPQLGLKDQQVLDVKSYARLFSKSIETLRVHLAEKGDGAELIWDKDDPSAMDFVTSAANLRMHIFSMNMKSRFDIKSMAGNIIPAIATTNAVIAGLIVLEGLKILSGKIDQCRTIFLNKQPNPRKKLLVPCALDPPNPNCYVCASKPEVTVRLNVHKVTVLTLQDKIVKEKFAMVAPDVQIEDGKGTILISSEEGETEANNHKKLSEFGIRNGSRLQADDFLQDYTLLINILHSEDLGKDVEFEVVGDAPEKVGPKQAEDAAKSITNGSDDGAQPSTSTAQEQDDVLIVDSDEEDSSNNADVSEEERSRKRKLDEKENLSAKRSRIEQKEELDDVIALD
T1 sequence (Q9UBE0 1-346): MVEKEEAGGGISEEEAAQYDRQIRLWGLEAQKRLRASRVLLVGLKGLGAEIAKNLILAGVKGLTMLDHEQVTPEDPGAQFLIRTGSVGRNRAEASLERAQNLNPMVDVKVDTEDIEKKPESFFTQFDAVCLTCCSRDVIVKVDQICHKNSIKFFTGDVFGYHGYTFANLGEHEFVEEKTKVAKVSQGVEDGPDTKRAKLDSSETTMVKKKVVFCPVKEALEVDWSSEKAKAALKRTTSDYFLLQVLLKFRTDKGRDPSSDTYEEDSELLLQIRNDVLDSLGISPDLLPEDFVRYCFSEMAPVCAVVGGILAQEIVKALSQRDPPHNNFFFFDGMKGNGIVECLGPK

SUMO E2 enzyme, UBC9 = experiment: Transfer of activated SUMO-1 from SUMO E1 to SUMO E2 enzyme UBC9 (gel-based assay); type: biochemical

COc1ccc(-c2nnc(Nc3nc4c(OC)cccc4s3)o2)cc1 [Example 1, N-(4-methoxybenzo[d]thiazol-2-yl)-5-(4-methoxyphenyl)-1,3,4-oxadiazol-2-amine]
Tau value (dose response) ([1]; 10 μM): 1.0 ± 0.1 ms | effects on mechanical properties of ARVMs (inotropic, lusitropic) ([1]; 24 hrs, versus DMSO): positive inotropic and lusitropic effects | Tau (rate of transient calcium decay) ([1]; isolated adult cardiomyocytes, DMSO 2.4±0.2, n=10): 1.8 ± 0.2 ms | Peak shortening ([1]; isolated adult cardiomyocytes, DMSO 3.0±0.8, n=10): 12.0±0.8% | Maximal rate of relaxation ([1]; isolated adult cardiomyocytes, DMSO 54.0±2.4, n=10): 210.7±19.4 μm/sec | Maximal rate of contraction ([1]; isolated adult cardiomyocytes, DMSO −64.0±7.9, n=10): −185.5±6.5 μm/sec | EC50 (SUMO E1 enzyme): 40.5 ± 4.4 µM | EC50 (SUMO E2 enzyme, UBC9): 10.2 ± 0.28 µM
